Laboratory results from patent US20080194646A1, “Methods For Avoiding Edema in the Treatment of Metabolic, Inflammatory, and Cardiovascular Disorders” (priority 2005, published 2008).

Assay: plasma hydrolysis of prodrug esters of (−) CPTA
Type: in vitro ADME
Conditions: human plasma (heparinized, pooled), 37° C., 125 or 250 μM prodrug; read-out: Plasma T1/2
Procedure: This example illustrates the plasma hydrolysis of various prodrug esters of the (S)-enantiomer of CPTA at physiological conditions. Hydrolysis was monitored and analyzed by HPLC. The hydrolytic product was identified by comparison to authentic (−) CPTA and the hydrolytic rates were calculated.
Human plasma (heparinized, pooled) was obtained from Golden West Biololgicals Inc., USA; Plasma incubation was carried out in a Water Bath Shaker (New Brunswick Scientific, Inc.); Sample analyses were carried out on Agilent HPLC 1100 system.
Prepare 31.25 or 62.5 mM prodrug stock solutions in 100% DMSO. Add 4 μL of 31.25 or 62.5 mM prodrug stock solutions to 1.0 mL of plasma in a microcentrifuge tube to make plasma concentration at 125 or 250 μM, mix gently. Aliquots of 50 μL are transferred to 15 microcentrifuge vials. Three samples are immediately removed to a freezer at about −80° C. (0 time point), the remaining samples are incubated in a bath shaker at 37° C. Three samples are removed at 30 min, 2, 7 and 24 hr, and stored at −80° C. until analysis. The relative concentrations of MBX-compounds are determined by HPLC methods. If there are enough data points, the hydrolytic rate can be calculated using WinNonlin software. Table 10 provides a summary of plasma half-lives of some pro-drug esters and FIGS. 20A-20G illustrate the hydrolytic curves of those prodrug esters. […]

half-life: < 1 h
SMILES: C=C/C=C(\C=C)C(=O)NCCOC(=O)C(Oc1cccc(C(F)(F)F)c1)c1ccc(Cl)cc1 (stereo not shown) [Compound 19.4]
